# Experimental data: patent publication US20100022637A1, “IDENTIFICATION OF ANTI-CANCER COMPOUNDS AND COMPOUNDS FOR TREATING HUNTINGTON'S DISEASE AND METHODS OF TREATMENT THEREOF” (THE TRUSTEES OF COLUMBIA UNIVERSITY IN THE CITY OF NEW YORK, priority 2005, published 2010)
# Columns and labels:
# [1] = system: RKO-E6 cells; assay: Alamar Blue viability assay, RKO-E6; format: cell-based, human; settings: in words; for effect on doxorubicin's lethality in RKO-E6 cells: co-treatment with 0.5 μg/ml doxorubicin, 24 h
# Experimental: RKO colon carcinoma, human (ATCC, order # CRL-2577), RKO-E6 colon carcinoma transfected with HPV E6 inserted in pCMV.3 (ATCC, order # CRL-2578) were grown in MEM with 2 mM L-glutamine and Earle's BBS adjusted to contain 1.5 g/L NaHCO3, 0.1 mM non-essential amino acids and 1.0 mM sodium pyruvate, and supplemented with 10% fetal bovine serum, penicillin and streptomycin (pen/strep). Both cell lines were incubated at 37° C. in a humidified incubator containing 5% CO2.
# The Alamar Blue assay incorporates a fluorimetric/colorimetric growth indicator that changes color in the response to chemical reduction by viable cells (Nociari 1998). Cells were seeded at a density of 3,000 cells (57 μl) per well in a 384-well black, clear-bottom plates using a syringe bulk dispenser (Zymark Sciclone ALH). Three microliters were removed from a compound daughter plate using a 384 fixed cannula head and added to the assay plate, making the final concentration 4 μg/ml. The plates were incubated for 24 h at 37° C. 10 μl of 40% Alamar Blue (Biosource Int., cat #DAL1100) solution in media was added to each well (1:10 dilution). The assay plates were incubated for 16h. Fluorescence intensity was determined using a Packard Fusion platereader with a 535 nm excitation filter and a 590 nm emission filter. The average fluorescence for the whole plate was used as a positive control. Average percentage inhibition for each well was determined using our freely available SLIMS software (Kelley et al., 2004).
# The daughter plates for the 2-fold dilution series were prepared with a Zymark Sciclone ALH by diluting the replica daughter plates to obtain compound concentrations from 8 μg/ml-0.008 μg/ml (columns 8-18). Columns 1-7 were used as untreated control. RKO-E6 cells were seeded at the density of 3,000 per well in 55 μl, and 5 μl were added from the daughter plate. RKO cells were seeded at the density of 2,000 per well in 55 μl, and 5 μl were added from the daughter plate. The assay was incubated for 24 h at 37° C. 10% Alamar Blue was added to each well and the assay was incubated for 16 h (see above). Compounds for retesting were purchased from the manufacturers or from Sigma-Aldrich (see above). Stocks were prepared in DMSO at 4 mg/ml.
# Each cell line (RKO, RKO-E6, HeLa and TC32) was treated with a dose combination matrix of doxorubicin and a selected hit compound. Each treatment was done in a triplicate in 384-well format. The average percent inhibition of cell proliferation, measured with Alamar Blue, was determined using the following formula: […]
# [2] = Rescue and toxicity of Compound 164 and analogs (Table 4); settings: for TC50: Table 4, toxicity; for Max % Toxicity / Max % Rescue: Table 4, cell model not stated
# [3] = system: N548 mutant cells; assay: cells; settings: Rattus norvegicus; for maximal fold induction: 72 h, read-out: N548 Mut: Max, maximum rescue expressed as fold over DMSO treated N548 mutant cells; for EC50: read-out: EC50 based on activity in N548 mutant cells
# Experimental: Embryonic rat striatal neurons were conditionally immortalized by stably transfecting a temperature-sensitive SV40 large T-antigen (T-ag) to generate the ST14A cell line. ST14A cells proliferate at the permissive temperature (33° C.), but stop dividing at 39° C., as a result of T-ag degradation. […] As htt protein context modulates polyQ toxicity, testing these different length htt proteins could provide insight into the basis for context dependence.
# ST14A Assay System: Calcein acetoxylmethyl ester (AM) (Molecular Probes, Eugene, Oreg.) is a non-fluorescent, membrane-permeable compound that is cleaved by intracellular esterases, which subsequently forms the anionic, fluorescent compound, calcein, that cannot permeate the cell membrane. […] A fluorescence viability assay, that is based on conversion of a non-fluorescent substrate (calcein AM) to a fluorescent product by nonspecific esterases in live cells, was employed to monitor cell death in wild type (wt) ST14A-Htt and mut ST14A-Htt cell lines. Cell death is indicated by a decrease in fluorescence. […] 3 μl of each compound was transferred from daughter plates to triplicate assay plates for a final assay concentration of 4 μg/ml in 0.1% DMSO (10 μM for NINDS compounds). Cells were incubated at 33° C. for 3 h to enhance attachment and then shifted to 39° C. (with 5% CO2). After 3 days (d), cells were washed 10 times with phosphate buffered saline (PBS) leaving 20 μl residual PBS per well, and 20 μl of 2 μg/ml calcein AM (Molecular probes) in PBS was added per well. […] The fluorescence intensity in each well was normalized to the median of each plate. The median normalized fluorescence of each triplicate assay wells was determined. A well with more than 50% increase in intensity above the median signal intensity was considered a “hit.”
# Assay Development: An assay was developed for detecting mutant htt-induced cell death in ST14A cells in a 384-well plate format. A calcein AM-based method was used to detect cell viability, and optimized the cell number and time course for this method. […] A cell number titration was performed to determine the cell density at which calcein fluorescence was not saturated and the coefficient of variation (CV) was low (FIG. 14A-B). A low CV is critical for a high-throughput assay as it decreases noise and enhances sensitivity. […] Next, the kinetics of the fluorescence signal were determined.
# Next, the serum concentrations that induce cell death in these cells were determined. Cells were seeded in decreasing serum (IFS) concentrations (5 to 0%), and cell viability was assayed after 3 d using the calcein AM assay (FIG. 14E).
# A Z′ value of greater than 0 is required for a usable assay, with a maximum value of 1.0 for an ideal assay. For the assay, calcein fluorescence was used on the day of seeding to represent 100% rescue. The difference in calcein fluorescence signal on the day of seeding and after different number of days under serum deprivation was determined and used to calculate the Z′ factor. […] About 47,000 compounds were assayed in a 384-well plate format in triplicate to enhance the reliability of the primary screen.
# [4] = system: PC12 expressing Q103 exon 1 htt; assay: PC12 HD model, Alamar Blue viability; format: cell-based; settings: for EC50: Rattus norvegicus, PC-12, unit inferred; for PC12 rescue: percent increase in viability in compound treated cells above DMSO treated: — = no activity in the assay (footnote n.a.)
# Experimental: For enhanced stability the repeat portion consists of alternating CAG/CAA repeats. […] Mutant (mut) htt was induced by the ecdysone receptor agonist, tebufenozide.
# For the PC12 assay, 7500 cells/well were plated in 384-well plates in 57 μl of PC12 medium with tebufenozide (1 μM). Compounds (3 μl) from daughter plates were added to the cells and incubated at 37° C. After 48 h, 20 μl of 40% Alamar Blue (Biosource, CA) in PC12 media was added per well and cells incubated for 12 h at 37° C. […] Fluorescence intensity was determined using a Packard Fusion plate reader with an excitation filter centered on 535 nm and an emission filter centered on 590 nm. Average percentage inhibition at each concentration was calculated.
compound,measurement,setting,value
CCCCCC(O)C=CC1CCC(=O)C1CCCCCCC(=O)O (stereo not shown) [11-deoxyprostaglandin E1],effect on doxorubicin's lethality in RKO-E6 cells,[1],showed no activity
COc1ccc(CN(CCC(c2ccc(OC(C)C)cc2)C(C)C)C(=O)c2ccco2)cc1 (stereo not shown) [Compound 164-7],EC50,[2],100 nM
same,TC50,[2],400 nM
same,Max % Toxicity,[2],63.90%
COc1ccc(CN(CCC2(c3ccccc3)CCOC(C)(C)C2)C(C)=O)cc1OC (stereo not shown) [Compound 164-9],Max % Rescue,[2],28.56%
same,Max % Toxicity,[2],19.60%
"COc1ccccc1C1(CCN(Cc2ccccc2)C(=O)c2ccco2)CCOC(C)(C)C1 (stereo not shown) [Compound 164-10, 2-Furancarboxamide, N-(phenylmethyl)-N-[2-[tetrahydro-4-(2-methoxyphenyl)-2,2-dimethyl-2H-pyran-4-yl]ethyl]-(9CI)]",EC50,[2],200 nM
same,TC50,[2],1700 nM
same,Max % Toxicity,[2],62.27%
"COc1ccc(C2c3cc(OC)c(OC)cc3CCN2C(=O)c2ccco2)cc1OC (stereo not shown) [Compound 164-11, Isoquinoline, 1-(3,4-dimethoxyphenyl)-2-(2-furanylcarbonyl)-1,2,3,4-tetrahydro-6,7-dimethoxy-(9CI)]",Max % Rescue,[2],7.95%
"CC(=O)N(CCC1(c2ccc(C)cc2)CCOC(C(C)C)C1)Cc1ccco1 (stereo not shown) [Compound 164-12, N-(2-furylmethyl)-N-{2-[2-isopropyl-4-(4-methylphenyl)tetrahydro-2H-pyran-4-yl]ethyl}acetamide]",TC50,[2],8000 nM
same,Max % Toxicity,[2],60.37%
"CC(c1ccccc1)N(CCC(c1ccccc1)C1CCOC(C)(C)C1)C(=O)c1ccco1 (stereo not shown) [Compound 164-13, N-[3-(2,2-dimethyltetrahydro-2H-pyran-4-yl)-3-phenylpropyl]-N-(1-phenylethyl)-2-furamide]",TC50,[2],4000 nM
same,Max % Toxicity,[2],55.74%
"COc1ccc(CN(CCC(c2ccc(OC)cc2)C2CCOC(C)(C)C2)C(=O)c2ccco2)cc1 (stereo not shown) [Compound 164-14, N-[3-(2,2-dimethyltetrahydro-2H-pyran-4-yl)-3-(4-methoxyphenyl)propyl]-N-(4-methoxybenzyl)-2-furamide]",EC50,[2],200 nM
same,TC50,[2],2000 nM
same,Max % Toxicity,[2],53.80%
"CCC(=O)N(CCC1(c2ccc(F)cc2)CCOC(C)(C)C1)Cc1ccc(OC)c(OC)c1 (stereo not shown) [Compound 164-15, Propanamide, N-[(3,4-dimethoxyphenyl)methyl]-N-[2-[4-(4-fluorophenyl)tetraydro-2,2-dimethyl-2H-pyran-4-yl}ethyl]-(9CI)]",Max % Rescue,[2],48.92%
"CC1(C)CC(CCN(Cc2ccccc2)C(=O)c2ccco2)(c2ccccc2)CCO1 (stereo not shown) [Compound 164-16, 2-Furancarboxamide, N-(phenylmethyl)-N-[2-(tetrahydro-2,2-dimethyl-4-phenyl-2H-pyran-4-yl)ethyl]-(9CI)]",CC50,[2],8000 nM
same,EC50,[2],200 nM
same,Max % Toxicity,[2],53.14%
"O=C(c1ccco1)N1CCN(Cc2ccc3c(c2)OCO3)CC1 [Compound 164-17, 1-(1,3-benzodioxol-5-ylmethyl)-4-(2-furoyl)piperazine]",Max % Toxicity,[2],31.31%
"COc1cccc(CN2CCN(C(=O)c3ccco3)CC2)c1 [Compound 164-18, 1-(2-furoyl)-4-(3-methoxybenzyl)piperazine]",Max % Toxicity,[2],12.00%
"COc1ccc(CN2CCN(C(=O)c3ccco3)CC2)cc1OC [Compound 164-19, 1-(3,4-dimethoxybenzyl)-4-(2-furoyl)piperazine]",EC50,[2],18900 nM
same,Max % Toxicity,[2],27.77%
COc1ccc(CN(CCC2(c3ccccc3)CCOC(C)(C)C2)C(=O)c2ccco2)cc1OC (stereo not shown) [Compound 164],EC50,[2],10000 nM
same,Max % Toxicity,[2],1.27%
"CCCCCCCCCCCCCCCC[N+](C)(C)C.[Br-] [cetrimonium bromide, cetyltrimethylammonium bromide]",effect on doxorubicin's lethality in RKO-E6 cells,[1],selectively increased doxorubicin's lethality
same,effect on camptothecin's lethality,[1]; co-treatment with camptothecin,did not synergize with camptothecin
O[C@H]1[C@H]2c3cc4c(cc3CN3CC[C@H](C[C@@H]1O)[C@H]23)OCO4 [dihydrolycorine],effect on doxorubicin's lethality in RKO-E6 cells,[1],potentiated doxorubicin's lethality
CC[C@H]1CN2CCc3cc(OC)c(OC)cc3[C@@H]2C[C@@H]1C[C@H]1NCCc2cc(OC)c(OC)cc21 [emetine],effect on doxorubicin's lethality in RKO-E6 cells,[1],potentiated doxorubicin's lethality
NC(=O)NO [hydroxyurea],effect on doxorubicin's lethality in RKO-E6 cells,[1],only modest upregulation of doxorubicin's lethality
NNc1nnc(-c2ccccc2)c2ccccc12 [revertin-7],maximal fold induction,[3],2
same,EC50,[3],1 µg/mL
same,EC50,[4],2 µg/mL
same,PC12 rescue: percent increase in viability in compound treated cells above DMSO treated,[4],18%
CCCc1ccc(CC2=C(O)C(=O)c3ccccc3C2=O)cc1 [revertin-8],maximal fold induction,[3],3
same,EC50,[3],2 µg/mL
same,EC50,[4],2 µg/mL
same,PC12 rescue: percent increase in viability in compound treated cells above DMSO treated,[4],15%
CCCCCCCCC(=O)N(Cc1ccco1)C(C)c1nc2ccccc2c(=O)n1-c1cc(C)ccc1C (stereo not shown) [revertin-9],maximal fold induction,[3],2
same,EC50,[3],1 µg/mL
same,EC50,[4],25 µg/mL
same,PC12 rescue: percent increase in viability in compound treated cells above DMSO treated,[4],25%
CCCCc1ccc(C(=O)N(CCC(=O)N2CCC(Cc3ccccc3)CC2)Cc2ccco2)cc1 [revertin-11],maximal fold induction,[3],2.5
same,EC50,[3],2 µg/mL
same,EC50,[4],30 µg/mL
same,PC12 rescue: percent increase in viability in compound treated cells above DMSO treated,[4],27%
"Propanamide, N-[(3,4-dimethoxyphenyl)methyl]-N-[2-(tetrahydro-2,2-dimethyl-4-phenyl-2H-pyran-4-yl)ethyl]-(9CI) [Compound 164-8]",Max % Rescue,[2],51.48%
